Experimental data reported in paper PMC7245553 (Cell chemical biology, 2020).
≈ marks a conversion by molar mass, not a printed value. Where “and” joins values, the source holds several entries; their conditions need not be identical. Identical values can stand only once. Like-named read-outs stand apart in the source and are kept apart here.

Assays:
[1] = Mouse liver microsomal stability; format: in vitro ADME; details: pH 7.4
in vitro = format: cell-based; details: African green monkey
M. tuberculosis H37Rv [2] = test: M. tuberculosis MIC assay; details: for MIC H37Rv: 90% inhibition of bacterial growth, Alamar blue
physchem = format: physicochemical; details: pH 7.4, aqueous buffer, kinetic from dmso stock
[3] = pH 7.4; cited from earlier work
Vero cells = details: cited from earlier work
[4] = Mouse pharmacokinetic profiling; format: in vivo, CD-1 mice
M. tuberculosis H37Rv [5] = test: Mouse model of acute M. tuberculosis infection; format: in vivo, BALB/c mice; details: for increase of CFU in the lungs versus start of treatment: 100 mg/kg po qd; for bacterial load in the spleen: po qd
M. tuberculosis H37Rv [6] = details: cited from earlier work
M. tuberculosis [7] = test: M. tuberculosis killing kinetics; format: cell-based, Mycobacterium tuberculosis; details: for reduction in CFUs, killing kinetics: 103 MIC of compound, over 7 days, followed by re-growth; for cidality in vitro: H37Rv strain; for killing in combination with INH: each at 10× MIC
M. tuberculosis H37Rv [8] = details: acute model, 100 mg/kg qd po, alone; ref Kumar et al., 2018; cited from earlier work
[9] = mouse, microsomes; cited from earlier work
M. tuberculosis [10] = test: Mouse model of chronic M. tuberculosis infection; format: in vivo, BALB/c mice; details: for reduction in CFUs, controls: 10 or 20 mg/kg qd po
[11] = tested on: M. tuberculosis mc^26206 within J774.1 cells; test: microbe, parasite or virus in culture; format: cell-based; details: Mycobacterium tuberculosis, J774.1, read-out: IC50, intracellular growth of M. tuberculosis mc^26206 within J774.1 cells
cytochrome P450 2C19 = cytochrome P450 2C19 (Homo sapiens, UniProt P33261); test: Human cytochrome P450 2C19 inhibition; format: in vitro ADME
Chain of cytochrome P450 2C19 (P33261 whole entry): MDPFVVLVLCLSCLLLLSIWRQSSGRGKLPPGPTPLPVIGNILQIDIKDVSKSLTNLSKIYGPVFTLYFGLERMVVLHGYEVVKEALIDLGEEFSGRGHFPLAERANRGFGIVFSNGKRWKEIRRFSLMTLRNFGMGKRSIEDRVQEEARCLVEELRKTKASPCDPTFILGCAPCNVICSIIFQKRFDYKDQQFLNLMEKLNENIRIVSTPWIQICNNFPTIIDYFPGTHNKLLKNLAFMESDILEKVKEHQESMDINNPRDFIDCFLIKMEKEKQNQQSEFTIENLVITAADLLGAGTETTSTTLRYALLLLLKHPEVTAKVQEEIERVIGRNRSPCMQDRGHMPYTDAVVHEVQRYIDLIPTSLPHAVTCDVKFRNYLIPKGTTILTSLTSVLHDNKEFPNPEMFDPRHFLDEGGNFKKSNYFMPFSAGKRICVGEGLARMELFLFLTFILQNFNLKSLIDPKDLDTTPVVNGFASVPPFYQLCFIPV

[12] = format: in vitro ADME; details: mouse, 5 µM
[13] = tested on: CYP1A2, CYP2C9, CYP2C19, CYP2D6, CYP3A4 (one value for the profile of isoforms; except 2C19 for compound 10); test: in vitro; format: in vitro ADME; details: human, pH 7.4
M. tuberculosis [14] = test: M. tuberculosis MBC assay; format: cell-based; details: Mycobacterium tuberculosis
[15] = format: in vitro ADME; details: human, 5 µM
Enterobacter cloacae = test: MIC versus Enterobacter cloacae; format: cell-based
Enterococcus faecium = test: MIC versus Enterococcus faecium; format: cell-based
Staphylococcus aureus = test: MIC versus Staphylococcus aureus; format: cell-based
Klebsiella pneumoniae = test: MIC versus Klebsiella pneumoniae; format: cell-based
Pseudomonas aeruginosa = test: MIC versus Pseudomonas aeruginosa; format: cell-based
hERG = hERG (Homo sapiens, UniProt Q12809); test: hERG inhibition; format: biochemical
Chain of hERG (Q12809 whole entry): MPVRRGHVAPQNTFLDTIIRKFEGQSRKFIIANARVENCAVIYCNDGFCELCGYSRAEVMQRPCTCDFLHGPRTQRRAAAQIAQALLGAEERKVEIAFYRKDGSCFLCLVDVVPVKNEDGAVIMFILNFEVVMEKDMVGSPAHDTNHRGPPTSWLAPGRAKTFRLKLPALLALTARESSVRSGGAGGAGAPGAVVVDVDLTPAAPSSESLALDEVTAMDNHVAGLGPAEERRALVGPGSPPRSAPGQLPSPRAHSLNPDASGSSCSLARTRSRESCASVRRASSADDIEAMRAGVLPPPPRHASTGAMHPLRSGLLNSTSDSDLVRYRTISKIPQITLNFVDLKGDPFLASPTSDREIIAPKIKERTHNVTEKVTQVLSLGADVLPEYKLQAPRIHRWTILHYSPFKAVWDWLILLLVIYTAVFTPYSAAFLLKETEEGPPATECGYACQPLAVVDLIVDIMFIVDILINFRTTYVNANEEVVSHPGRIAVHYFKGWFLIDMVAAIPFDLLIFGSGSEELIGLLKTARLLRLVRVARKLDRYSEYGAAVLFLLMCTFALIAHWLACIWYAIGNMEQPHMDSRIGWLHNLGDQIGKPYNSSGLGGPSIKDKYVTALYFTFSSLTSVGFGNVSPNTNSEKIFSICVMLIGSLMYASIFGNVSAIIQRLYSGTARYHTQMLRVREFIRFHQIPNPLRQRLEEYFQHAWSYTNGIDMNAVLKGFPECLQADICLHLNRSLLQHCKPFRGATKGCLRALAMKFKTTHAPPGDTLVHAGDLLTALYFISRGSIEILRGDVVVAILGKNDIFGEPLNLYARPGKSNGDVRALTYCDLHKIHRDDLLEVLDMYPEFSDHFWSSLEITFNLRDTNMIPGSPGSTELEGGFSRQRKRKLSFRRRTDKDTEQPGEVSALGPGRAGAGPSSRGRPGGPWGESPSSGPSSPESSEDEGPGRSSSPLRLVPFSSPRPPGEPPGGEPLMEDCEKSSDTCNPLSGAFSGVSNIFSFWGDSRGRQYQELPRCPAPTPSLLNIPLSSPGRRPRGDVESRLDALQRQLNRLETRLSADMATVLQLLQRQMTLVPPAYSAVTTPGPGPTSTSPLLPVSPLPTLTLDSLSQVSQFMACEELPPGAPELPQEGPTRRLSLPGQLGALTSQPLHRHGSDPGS

[16] = Dog liver microsomal stability; format: in vitro ADME; details: pH 7.4
[17] = tested on: mycolic acid biosynthesis within M. tuberculosis H37Rv; test: Mycolic acid biosynthesis analysis; format: cell-based, Mycobacterium tuberculosis
KasA = KasA (Mycobacterium tuberculosis, UniProt P9WQD9); test: Microscale thermophoresis binding assay
Chain of KasA (P9WQD9 whole entry): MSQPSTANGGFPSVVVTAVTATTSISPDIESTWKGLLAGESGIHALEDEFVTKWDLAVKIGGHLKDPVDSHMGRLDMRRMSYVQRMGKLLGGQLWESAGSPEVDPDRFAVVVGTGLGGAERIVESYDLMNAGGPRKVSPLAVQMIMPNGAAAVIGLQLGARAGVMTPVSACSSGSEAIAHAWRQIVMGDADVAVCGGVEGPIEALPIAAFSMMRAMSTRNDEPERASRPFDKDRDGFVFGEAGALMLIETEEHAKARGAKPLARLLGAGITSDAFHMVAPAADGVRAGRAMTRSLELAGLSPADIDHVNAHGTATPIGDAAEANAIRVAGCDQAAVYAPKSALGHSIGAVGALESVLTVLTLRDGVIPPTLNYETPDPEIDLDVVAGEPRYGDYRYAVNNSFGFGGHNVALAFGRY

[18] = female, CD-1, mouse, in vivo, po

SMILES: CCCCS(=O)(=O)Nc1ccc2[nH]c(C(N)=O)c(C)c2c1 [Compound 8, 5-(butylsulfonamido)-3-methyl-1H-indole-2-carboxamide]
- half-life ([1]; microsomes): 6.16 min
- CC50 (in vitro): > 160 µM
- MIC H37Rv (M. tuberculosis H37Rv [2]): 3.1 µM (≈ 0.959 µg/mL)
- solubility kinetic at 4 h (physchem): 45.5 µM (≈ 14.1 µg/mL)

SMILES: CCCCS(=O)(=O)Nc1ccc2[nH]c(CN)c(C)c2c1 [Compound 11, N-(2-(aminomethyl)-3-methyl-1H-indol-5-yl)butane-1-sulfonamide]
- CC50 (in vitro): 170 µM
- MIC H37Rv (M. tuberculosis H37Rv [2]): 100 µM (≈ 29.5 µg/mL)

SMILES: CCCCS(=O)(=O)Nc1ccc2cnn(C)c2c1 [DG167]
- Kinetic Aqueous Solubility [3]: 324 µM
- CC50 (Vero cells): 23 µM
- AUC0–5h/MIC ([4]; mouse, in vivo, po): 20
- increase of CFU in the lungs versus start of treatment (M. tuberculosis H37Rv [5]): about 1 log10 CFU
- MIC H37Rv (M. tuberculosis H37Rv [6]; footnote a, ref Kumar et al. (2018)): 0.39 µM (≈ 0.104 µg/mL)
- MIC against the wild-type H37Rv strain (M. tuberculosis H37Rv [6]; ref Kumar et al., 2018): 390 µM (≈ 104 µg/mL)
- reduction in CFUs, killing kinetics (M. tuberculosis [7]): > 2 log10
- bacterial load of mouse lungs versus start of treatment (M. tuberculosis H37Rv [8]): did not reduce the bacterial load of mouse lungs
- MLM t1/2 [9]: 10.1 min

SMILES: NNC(=O)c1ccncc1 [INH, isoniazid, reference compound]
- reduction in CFUs, controls (M. tuberculosis [10]; 4 weeks): ~ 2 log10
- reduction in CFU, killing kinetics (M. tuberculosis [7]; 103 MIC, over 4 days, with rapid re-growth): > 3 log10
- IC50 [11]: 0.5 µM

SMILES: CCCCS(=O)(=O)Nc1ccc2[nH]nc(Cl)c2c1 [Compound 14, N-(3-chloro-1H-indazol-5-yl)butane-1-sulfonamide]
- Kp at 5 h ([4]; female, CD-1, mouse, in vivo): 0.6
- t > MIC ([4]; female, CD-1, mouse, in vivo): 5 h
- AUC(0-t) [4, 18]: 51700 ng·h/mL
- half-life ([1]; microsomes): 32.1 min
- CC50 (in vitro): 22 µM
- MIC H37Rv (M. tuberculosis H37Rv [2]): 0.39 µM (≈ 0.112 µg/mL)
- solubility kinetic at 4 h (physchem): 443 µM (≈ 127 µg/mL)

SMILES: CCCCCS(=O)(=O)Nc1ccc2[nH]c(C#N)c(C)c2c1 [Compound 10, N-(2-cyano-3-methyl-1H-indol-5-yl)pentane-1-sulfonamide]
- IC50 (cytochrome P450 2C19): 0.542 µM
- bacterial growth in the lungs (M. tuberculosis H37Rv [5]; 100 mg/kg): permissive of bacterial growth in the lungs
- activity in the lungs (M. tuberculosis H37Rv [5]; 200-mg/kg dosing regimen): bacteriostatic activity in the lungs
- bacterial load in the spleen (M. tuberculosis H37Rv [5]): did not reduce the bacterial load in the spleen
- half-life ([1]; mouse liver microsomes): 4.08 min
- CC50 (in vitro): 160 µM
- plasma stability at 5 h [12]: ≥ 80%
- IC50 at 20 min [13]: > 1 µM
- cidality in vitro (M. tuberculosis [7]): in vitro bactericidal
- killing in combination with INH (M. tuberculosis [7]): culture sterilization
- MBC (M. tuberculosis [14]): 0.65 to 1.3 µM (≈ 0.199 to 0.397 µg/mL)
- IC50 [11]: 0.078 µM
- MIC H37Rv (M. tuberculosis H37Rv [2]): 0.2 µM and 0.20 µM
- plasma stability at 5 h [15]: ≥ 80%

SMILES: O=S(=O)(CCCC(F)(F)F)Nc1ccc2[nH]nc(Cl)c2c1 [Compound 16, N-(3-chloro-1H-indazol-5-yl)-4,4,4-trifluorobutane-1-sulfonamide]
- Kp at 5 h ([4]; female, CD-1, mouse, in vivo): 1.2
- t > MIC ([4]; female, CD-1, mouse, in vivo): 5 h
- AUC(0-t) [4, 18]: 22000 ng·h/mL
- CC50 (in vitro): > 150 µM
- MIC H37Rv (M. tuberculosis H37Rv [2]): 0.20 µM (≈ 0.0683 µg/mL)

SMILES: CCCCCS(=O)(=O)Nc1ccc2[nH]nc(C)c2c1 [Compound 13, N-(3-methyl-1H-indazol-5-yl)pentane-1-sulfonamide]
- Kp at 5 h ([4]; female, CD-1, mouse, in vivo): 1.3
- t > MIC ([4]; female, CD-1, mouse, in vivo): 5 h
- AUC(0-t) [4, 18]: 13900 ng·h/mL
- half-life ([1]; microsomes): 3.26 min
- CC50 (in vitro): 89 µM
- MIC H37Rv (M. tuberculosis H37Rv [2]): 0.12 µM (≈ 0.0338 µg/mL)
- solubility kinetic at 4 h (physchem): 476 µM (≈ 134 µg/mL)

SMILES: CCCCS(=O)(=O)Nc1ccc2[nH]c(C#N)c(C)c2c1 [Compound 9, N-(2-cyano-3-methyl-1H-indol-5-yl)butane-1-sulfonamide]
- increase of CFU in the lungs versus start of treatment (M. tuberculosis H37Rv [5]): about 1 log10 CFU
- bacterial load in the spleen (M. tuberculosis H37Rv [5]): did not reduce the bacterial load in the spleen
- half-life ([1]; mouse liver microsomes): 6.51 min
- CC50 (in vitro): 170 µM
- plasma stability at 5 h [12]: ≥ 80%
- IC50 at 20 min [13]: > 1 µM
- reduction in CFUs, killing kinetics (M. tuberculosis [7]): > 2 log10
- cidality in vitro (M. tuberculosis [7]): in vitro bactericidal
- MBC (M. tuberculosis [14]): 1.4 to 2.7 µM (≈ 0.408 to 0.787 µg/mL)
- IC50 [11]: 0.19 µM
- MIC H37Rv (M. tuberculosis H37Rv [2]): 0.78 µM (≈ 0.227 µg/mL)
- MIC (M. tuberculosis H37Rv [2]; H37Rv): 780 µM (≈ 227 µg/mL)
- plasma stability at 5 h [15]: ≥ 80%

SMILES: CCCCS(=O)(=O)Nc1ccc2[nH]cc(C)c2c1 [Compound 4, N-(3-methyl-1H-indol-5-yl)butane-1-sulfonamide]
- CC50 (in vitro): > 190 µM
- MIC H37Rv (M. tuberculosis H37Rv [2]): 1.6 µM (≈ 0.426 µg/mL)

SMILES: O=S(=O)(CCCCF)Nc1ccc2[nH]nc(Cl)c2c1 [Compound 18, N-(3-chloro-1H-indazol-5-yl)-4-fluorobutane-1-sulfonamide]
- CC50 (in vitro): 160 µM
- MIC H37Rv (M. tuberculosis H37Rv [2]): 0.20 µM (≈ 0.0612 µg/mL)

SMILES: CCCCS(=O)(=O)Nc1ccc2[nH]c(C(=O)OCC)c(C)c2c1 [Compound 5, ethyl 5-(butylsulfonamido)-3-methyl-1H-indole-2-carboxylate]
- half-life ([1]; microsomes): < 0.5 min
- CC50 (in vitro): > 150 µM
- MIC H37Rv (M. tuberculosis H37Rv [2]): 0.20 µM (≈ 0.0677 µg/mL)
- solubility kinetic at 4 h (physchem): 0.895 µM (≈ 0.303 µg/mL)

SMILES: CCCCCS(=O)(=O)Nc1ccc2[nH]nc(Cl)c2c1 [Compound 17, N-(3-chloro-1H-indazol-5-yl)pentane-1-sulfonamide]
- Kp at 5 h ([4]; female, CD-1, mouse, in vivo): 1.7
- t > MIC ([4]; female, CD-1, mouse, in vivo): 5 h
- AUC(0-t) [4, 18]: 34800 ng·h/mL
- CC50 (in vitro): 170 µM
- MIC H37Rv (M. tuberculosis H37Rv [2]): 0.39 µM (≈ 0.118 µg/mL)

SMILES: Cc1n[nH]c2ccc(NS(=O)(=O)CCCCF)cc12 [JSF-3285, 4-fluoro-N-(3-methyl-1H-indazol-5-yl)butane-1-sulfonamide]
- MIC (Enterobacter cloacae): > 50 µg/mL
- MIC (Enterococcus faecium): > 50 µg/mL
- improvement of efficacy of INH or RIF regimen on addition (M. tuberculosis [10]; 200 mg/kg added to 10 mg/kg INH or RIF): ~ 1 log10
- additional reduction of bacterial burden compared to INH- and RIF-only treatment (M. tuberculosis [10]; 200 mg/kg alone): ~ 1 log10 CFUs
- reduction of bacterial burden in the mouse lungs versus start of treatment (M. tuberculosis [10]; 200 mg/kg qd po alone or with 10 mg/kg INH or RIF, 4 weeks): more than 2 log10 CFUs
- reduction in CFUs in infected lungs (M. tuberculosis [10]; 200–5 mg/kg qd and 20 mg/kg qd or bid, 4 weeks of treatment): 1.5–2.0 log10
- increase in mouse plasma exposure (AUC0–5h) over DG167 ([4]; female, CD-1, mouse, in vivo): 30 fold
- t > MIC ([4]; female, CD-1, mouse, in vivo): 5 h
- AUC(0-t) [4, 18]: 59300 ng·h/mL
- Kp at 5 h ([4]; female, CD-1, mouse, lung and plasma, oral): 0.75
- MIC (Staphylococcus aureus): > 50 µg/mL
- MIC (Klebsiella pneumoniae): > 50 µg/mL
- reduction in lung bacterial burden (CFUs) versus start of treatment (M. tuberculosis H37Rv [5]; 100 or 200 mg/kg qd po, 4 weeks of treatment): ~ 2 log10
- half-life ([1]; mouse liver microsomes): 28.4 min
- MIC (Pseudomonas aeruginosa): > 50 µg/mL
- IC50 (hERG): > 50 µM
- CC50 (in vitro): 170 µM
- cidality in vitro (M. tuberculosis [7]): cidal to the H37Rv strain
- killing in combination with INH (M. tuberculosis [7]): culture sterilization
- half-life ([16]; microsomes): 48.2 min
- intrinsic clearance (Clint) in dog liver microsomes [16]: 124 µL/min/mg
- IC50 [11]: 0.046 µM
- MIC H37Rv (M. tuberculosis H37Rv [2]): 0.20 µM (≈ 0.0571 µg/mL)
- mycolic acid biosynthesis [17]: inhibited mycolic acid biosynthesis
- solubility kinetic at 4 h (physchem): 175 µM (≈ 49.9 µg/mL)
- Kd (KasA): 0.0707 ± 0.0235 µM

SMILES: Cc1n[nH]c2ccc(NS(=O)(=O)CCCC(F)(F)F)cc12 [Compound 15, 4,4,4-trifluoro-N-(3-methyl-1H-indazol-5-yl)butane-1-sulfonamide]
- Kp at 5 h ([4]; female, CD-1, mouse, in vivo): 0.95
- t > MIC ([4]; female, CD-1, mouse, in vivo): 5 h
- AUC(0-t) [4, 18]: 28400 ng·h/mL
- CC50 (in vitro): > 160 µM
- MIC H37Rv (M. tuberculosis H37Rv [2]): 0.25 µM (≈ 0.0803 µg/mL)

SMILES: CO[C@H]1/C=C/O[C@@]2(C)Oc3c(C)c(O)c4c(O)c(c(/C=N/N5CCN(C)CC5)c(O)c4c3C2=O)NC(=O)/C(C)=C\C=C\[C@H](C)[C@H](O)[C@@H](C)[C@@H](O)[C@@H](C)[C@H](OC(C)=O)[C@@H]1C [RIF, rifampicin, reference compound]
- reduction in CFUs, controls (M. tuberculosis [10]; 4 weeks): ~ 2 log10
- IC50 [11]: 0.3 µM
